Results: patent publication US6793943B2, “Health food products” (priority 2000, dated 2004)

Legend:
[1] = preliminary administration experiment; assay type: in vivo; conditions: several persons who ingested the substance alone
[2] = administration of three kinds of samples for 2 months to groups of 30 persons; assay type: in vivo; conditions: numbers of the persons; administered for 2 months; group of 30 persons
Text: (a) a sample of cholic acid alone,
(b) a sample of soybean isoflavone glycoside alone, and
were each administered for 2 months to each group containing 30 persons to be tested.

In the case of C[C@H](CCC(=O)O)[C@H]1CC[C@H]2[C@@H]3[C@H](O)C[C@@H]4C[C@H](O)CC[C@]4(C)[C@H]3C[C@H](O)[C@]12C [cholic acid], the “troubles by drinking an alcoholic beverage” value [1] is reported as “ameliorated”, the “Alcoholic beverage tasted good” value [2] is reported as 8 Persons and the Evacuation became easy [2] is reported as 1 Person Persons. The Feces amount increased [2] was “No Person”, the No hangover noted [2] was 4 Persons and the “Significantly recovered from fatigue” value [2] was “No Person”.
